Laboratory results as given in patent US12110287B2, “Heterocyclic derivatives as Nav1.7 and Nav1.8 blockers” (RaQualia Pharma Inc., priority 2018, dated 2024).

Legend:
human Nav1.8 channels = biological target: T1, human Nav1.8 channels (Homo sapiens, UniProt Q9Y5Y9); test: FRET assay (FDSS membrane potential); type: cell-based; conditions: HEK293 cells expressing human Nav1.8 channels, read-out: IC50 against Nav1.8
T1 construct: expressed in transfected cells; host or cells: HEK293 cells
Procedure: (§1) This screen is used to determine the effects of compounds on human Nav1.8, and human Nav1.5 channels, utilizing the cell imaging technology by Hamamatsu Photonics's Functional Drug Screening System (FDSS). The changes of membrane potential are monitored with fluorescent membrane potential dye pair, DiSBAC2(3) and CC2-DMPE, using FRET technology.
(§2) HEK293 cells expressing human Nav1.8 channels or human Nav1.5 channels are grown in T225 flasks, in a 5% CO2 humidified incubator to about 80% confluence. […]
(§3) The data is analyzed and reported as normalized ratios of intensities measured in the 465 nm and 575 nm channels. The process of calculating these ratios is performed as follows: FR=(FI465 Max/FI575 Min)−(FI465B/FI575B) [Math.2] • “FR”=fluorescence ratio • “FI465B”=the mean of fluorescence intensity as baseline (before Na^+ ligand addition) at 465 nm • “FI575B”=the mean of fluorescence intensity as baseline (before Na^+ ligand addition) at 575 nm • “FI465Max”=maximum fluorescence intensity at 465 nm after Na^+ stimulation • “FI575Min”=minimum fluorescence intensity at 575 nm after Na^+ stimulation Inhibition (%)=100−(FR of each well)−(median FR in positive controls)/(median FR in negative controls)−(median FR in positive controls)×100 [Math.3] […]

human Nav1.5 channels = biological target: T2, human Nav1.5 channels (Homo sapiens, UniProt Q14524); test: FRET assay (FDSS membrane potential); type: cell-based; conditions: HEK293 cells expressing human Nav1.5 channels, read-out: activity (IC50) against Nav1.5
T2 construct: expressed in transfected cells; host or cells: HEK293 cells
T2 sequence (Q14524 whole entry): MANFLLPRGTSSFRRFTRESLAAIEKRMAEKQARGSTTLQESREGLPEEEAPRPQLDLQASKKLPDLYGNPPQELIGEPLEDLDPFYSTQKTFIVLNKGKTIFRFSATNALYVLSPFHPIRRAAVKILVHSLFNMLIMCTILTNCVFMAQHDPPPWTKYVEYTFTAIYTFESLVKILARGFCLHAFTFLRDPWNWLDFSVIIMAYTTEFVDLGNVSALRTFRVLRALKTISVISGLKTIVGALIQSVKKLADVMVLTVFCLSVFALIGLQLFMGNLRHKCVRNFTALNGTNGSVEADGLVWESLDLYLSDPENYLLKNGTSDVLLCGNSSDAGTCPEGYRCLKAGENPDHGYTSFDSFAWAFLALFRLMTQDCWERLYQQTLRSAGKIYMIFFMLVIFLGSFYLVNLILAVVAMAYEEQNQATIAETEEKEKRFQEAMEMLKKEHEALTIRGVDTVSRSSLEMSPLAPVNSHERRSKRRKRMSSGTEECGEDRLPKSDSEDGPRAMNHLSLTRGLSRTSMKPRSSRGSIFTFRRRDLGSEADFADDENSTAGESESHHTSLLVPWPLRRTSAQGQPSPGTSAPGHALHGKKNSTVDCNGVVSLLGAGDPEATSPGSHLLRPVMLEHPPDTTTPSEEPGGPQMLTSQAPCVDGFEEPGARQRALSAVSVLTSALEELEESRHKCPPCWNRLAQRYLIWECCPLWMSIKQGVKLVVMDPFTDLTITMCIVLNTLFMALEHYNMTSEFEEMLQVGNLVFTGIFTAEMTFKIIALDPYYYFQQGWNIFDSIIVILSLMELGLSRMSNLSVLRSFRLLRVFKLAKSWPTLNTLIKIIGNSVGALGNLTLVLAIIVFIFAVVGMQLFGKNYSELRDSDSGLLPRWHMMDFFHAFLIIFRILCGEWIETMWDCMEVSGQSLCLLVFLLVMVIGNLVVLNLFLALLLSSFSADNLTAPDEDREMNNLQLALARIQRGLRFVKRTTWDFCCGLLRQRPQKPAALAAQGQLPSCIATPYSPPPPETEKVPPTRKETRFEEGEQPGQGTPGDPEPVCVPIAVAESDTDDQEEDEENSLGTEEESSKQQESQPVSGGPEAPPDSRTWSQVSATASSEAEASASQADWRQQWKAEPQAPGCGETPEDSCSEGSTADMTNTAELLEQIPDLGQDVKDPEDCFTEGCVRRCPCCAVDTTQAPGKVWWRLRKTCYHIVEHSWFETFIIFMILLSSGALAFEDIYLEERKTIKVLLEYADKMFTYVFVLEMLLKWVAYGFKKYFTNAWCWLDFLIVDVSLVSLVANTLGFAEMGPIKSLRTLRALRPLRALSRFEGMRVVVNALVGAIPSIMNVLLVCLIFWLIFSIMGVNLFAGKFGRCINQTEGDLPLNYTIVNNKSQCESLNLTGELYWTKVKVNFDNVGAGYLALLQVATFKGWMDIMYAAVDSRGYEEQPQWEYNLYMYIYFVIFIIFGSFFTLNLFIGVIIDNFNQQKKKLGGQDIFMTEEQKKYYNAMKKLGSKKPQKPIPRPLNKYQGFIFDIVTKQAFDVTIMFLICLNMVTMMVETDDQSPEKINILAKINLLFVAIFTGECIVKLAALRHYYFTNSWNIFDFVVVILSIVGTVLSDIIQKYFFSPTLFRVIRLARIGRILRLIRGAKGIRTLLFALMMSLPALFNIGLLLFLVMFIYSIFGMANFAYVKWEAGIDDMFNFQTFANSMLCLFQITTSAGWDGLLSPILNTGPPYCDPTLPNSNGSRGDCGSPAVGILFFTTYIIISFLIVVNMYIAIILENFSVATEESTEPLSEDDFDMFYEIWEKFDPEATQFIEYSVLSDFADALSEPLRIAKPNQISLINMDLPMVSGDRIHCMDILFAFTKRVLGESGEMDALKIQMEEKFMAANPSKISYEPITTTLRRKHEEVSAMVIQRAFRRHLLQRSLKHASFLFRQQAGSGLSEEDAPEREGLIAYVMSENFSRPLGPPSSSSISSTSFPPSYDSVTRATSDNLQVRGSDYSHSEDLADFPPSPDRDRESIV
Procedure: as §1, §2, §3

T1 sequence (Q9Y5Y9 whole entry): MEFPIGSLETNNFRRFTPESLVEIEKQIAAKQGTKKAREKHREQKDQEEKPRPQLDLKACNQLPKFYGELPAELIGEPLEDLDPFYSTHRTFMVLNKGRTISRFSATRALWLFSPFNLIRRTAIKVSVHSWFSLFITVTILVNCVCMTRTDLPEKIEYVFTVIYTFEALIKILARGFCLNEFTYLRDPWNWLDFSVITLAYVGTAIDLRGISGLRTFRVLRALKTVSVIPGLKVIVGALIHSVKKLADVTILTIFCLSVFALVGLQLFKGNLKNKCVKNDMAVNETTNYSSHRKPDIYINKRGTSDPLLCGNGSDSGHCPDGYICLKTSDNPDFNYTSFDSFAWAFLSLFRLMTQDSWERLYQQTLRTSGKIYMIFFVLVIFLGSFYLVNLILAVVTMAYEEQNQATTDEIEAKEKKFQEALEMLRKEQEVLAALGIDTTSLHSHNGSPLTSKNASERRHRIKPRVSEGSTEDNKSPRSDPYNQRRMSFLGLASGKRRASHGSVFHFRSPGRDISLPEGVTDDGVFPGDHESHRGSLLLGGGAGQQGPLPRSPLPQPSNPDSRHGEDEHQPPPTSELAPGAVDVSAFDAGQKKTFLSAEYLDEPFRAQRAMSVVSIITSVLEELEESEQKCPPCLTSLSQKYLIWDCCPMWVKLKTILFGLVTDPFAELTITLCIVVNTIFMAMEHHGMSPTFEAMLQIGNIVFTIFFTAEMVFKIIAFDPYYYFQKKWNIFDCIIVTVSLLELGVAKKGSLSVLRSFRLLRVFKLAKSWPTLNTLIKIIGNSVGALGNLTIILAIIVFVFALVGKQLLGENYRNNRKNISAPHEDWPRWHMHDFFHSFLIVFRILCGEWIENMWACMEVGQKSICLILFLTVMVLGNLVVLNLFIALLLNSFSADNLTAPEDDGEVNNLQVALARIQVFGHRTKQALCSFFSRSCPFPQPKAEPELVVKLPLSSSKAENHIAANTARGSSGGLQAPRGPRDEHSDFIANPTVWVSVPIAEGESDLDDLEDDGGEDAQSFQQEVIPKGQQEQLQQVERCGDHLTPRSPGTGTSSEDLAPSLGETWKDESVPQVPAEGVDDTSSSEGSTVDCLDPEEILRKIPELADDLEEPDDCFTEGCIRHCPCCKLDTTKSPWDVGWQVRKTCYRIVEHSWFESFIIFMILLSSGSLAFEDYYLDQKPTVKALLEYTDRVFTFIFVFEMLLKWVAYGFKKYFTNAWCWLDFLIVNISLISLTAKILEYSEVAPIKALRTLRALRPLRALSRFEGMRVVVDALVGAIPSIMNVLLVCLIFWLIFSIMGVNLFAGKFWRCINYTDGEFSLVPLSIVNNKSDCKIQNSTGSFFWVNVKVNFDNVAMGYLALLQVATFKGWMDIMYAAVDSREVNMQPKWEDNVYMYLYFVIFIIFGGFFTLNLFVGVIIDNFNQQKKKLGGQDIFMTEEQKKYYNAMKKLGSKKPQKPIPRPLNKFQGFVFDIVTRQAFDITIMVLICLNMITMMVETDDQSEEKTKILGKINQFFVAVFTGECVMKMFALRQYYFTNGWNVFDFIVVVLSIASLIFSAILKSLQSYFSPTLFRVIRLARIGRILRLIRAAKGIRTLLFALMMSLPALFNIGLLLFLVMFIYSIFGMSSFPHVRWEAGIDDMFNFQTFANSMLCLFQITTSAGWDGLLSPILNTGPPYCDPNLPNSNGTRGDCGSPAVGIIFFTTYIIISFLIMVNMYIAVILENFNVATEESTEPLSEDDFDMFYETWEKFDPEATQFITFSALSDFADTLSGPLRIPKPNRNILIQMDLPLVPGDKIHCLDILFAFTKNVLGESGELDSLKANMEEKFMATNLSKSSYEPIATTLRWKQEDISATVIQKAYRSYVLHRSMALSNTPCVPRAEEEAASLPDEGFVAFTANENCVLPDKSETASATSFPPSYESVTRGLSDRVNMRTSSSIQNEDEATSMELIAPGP

IC50 (human Nav1.8 channels): 2000 nM
SMILES: O=C(N[C@@H]1CCCN(c2ncc(C(F)(F)F)cc2Cl)C1)c1ccnc(NC(=O)C2CC2)c1 [Example 7]
IC50 (human Nav1.5 channels): > 30 µM
